Measured values as given in patent US20260125389A1, “MEMBRANE-ASSOCIATED TYROSINE AND THREONINE KINASE INHIBITOR AND USE THEREOF” (HAINAN SIMCERE ZAIMING PHARMACEUTICAL CO., LTD., priority 2022, published 2026).

System: HCC1569 cells
Test: Inhibition of tumor cell proliferation (CTG, HCC1569)
Assay type: cell-based
Details: Homo sapiens, 168 h, 7 days incubation, CTG readout, read-out: IC50 of compounds for inhibition of HCC1569 cell growth
Experimental: Experimental principle: The compound was incubated with tumor cells for 7 days, and ATP in viable cells was quantified using the CTG kit from Promega to evaluate the effect of the compound on tumor cell proliferation.
Experimental method: The cultured cells were resuspended after being rinsed with PBS (for adherent cells) and digested with 0.25% Trypsin-EDTA, followed by cell counting to determine cell density and viability. 3000 HCC1569 cells/well were diluted with RPMI Medium 1640 containing 10% FBS, added to a 96-well plate (90 μL/well), and cultured in an incubator at 37° C. with 5% CO2 for 24 h. The test compound was diluted to different concentrations in dimethyl sulfoxide (DMSO) and added to a 96-well plate. Thus, the final concentration of the compound in the reaction system started at 25 μM and was subjected to a 4-fold serial dilution, with the final DMSO concentration maintained at 0.25%. The compound and cells were further incubated at 37° C. with 5% CO2 for 7 days. 50 μL/well of CTG was then added to measure the inhibitory effect of the compound on tumor cell growth, and the inhibition rate and half-maximal inhibitory concentration (IC50) were calculated.
The % compound inhibition was calculated and fitted using XLfit software to obtain the IC50 of the compound.
Blank wells and DMSO wells were set up. The blank well contained 100 μL of RPMI Medium 1640 with 10% FBS, where the inhibition rate of the compound on tumor cell growth was considered 100%. The DMSO well contained 0.25% DMSO added to the cell well, where the inhibition rate of the compound on tumor cell growth was considered 0%.

Compound	IC50 [µM]
Cc1nc2c3c(c(N)n(-c4c(C)ccc(O)c4C)c3n1)C(=O)NCc1ccccc1-2 [Compound 3, 2-amino-1-(3-hydroxy-2,6-dimethylphenyl)-11-methyl-4,5-dihydro-1,4,10,12-tetraazabenzo[4,5]cyclooctatetraeno[1,2,3-cd]inden-3(1H)-one]	0.293
Cc1nc2c3c(c(N)n(-c4c(C)ccc(O)c4C)c3n1)C(=O)NCc1ncccc1-2 [Compound 4, 2-amino-1-(3-hydroxy-2,6-dimethylphenyl)-11-methyl-4,5-dihydro-1,4,6,10,12-pentaazabenzo[4,5]cyclooctatetraeno[1,2,3-cd]inden-3(1H)-one]	0.24
Cc1nc2c3c(c(N)n(-c4c(C)ccc(O)c4C)c3n1)C(=O)NCc1cnccc1-2 [Compound 5, 2-amino-1-(3-hydroxy-2,6-dimethylphenyl)-11-methyl-4,5-dihydro-1,4,7,10,12-pentaazabenzo[4,5]cyclooctatetraeno[1,2,3-cd]inden-3(1H)-one]	0.539
Cc1ccc2c(n1)CNC(=O)c1c(N)n(-c3c(C)ccc(O)c3C)c3nc(C)nc-2c13 [Compound 9, 2-amino-1-(3-hydroxy-2,6-dimethylphenyl)-7,11-dimethyl-4,5-dihydro-1,4,6,10,12-pentaazabenzo[4,5]cyclooctatetraeno[1,2,3-cd]inden-3(1H)-one]	0.21
COc1cccc2c1CNC(=O)c1c(N)n(-c3c(C)ccc(O)c3C)c3nc(C)nc-2c13 [Compound 11, 2-amino-1-(3-hydroxy-2,6-dimethylphenyl)-6-methoxy-11-methyl-4,5-dihydro-1,4,10,12-tetraazabenzo[4,5]cyclooctatetraeno[1,2,3-cd]inden-3(1H)-one]	0.0592
COc1nccc2c1CNC(=O)c1c(N)n(-c3c(C)ccc(O)c3C)c3nc(C)nc-2c13 [Compound 23, 2-amino-1-(3-hydroxy-2,6-dimethylphenyl)-6-methoxy-11-methyl-4,5-dihydro-1,4,7,10,12-pentaazabenzo[4,5]cyclooctatetraeno[1,2,3-cd]inden-3(1H)-one]	0.0249
Cc1nc2c3c(c(N)n(-c4c(C)ccc(O)c4C)c3n1)C(=O)NCc1c(C#N)cccc1-2 [Compound 27, 2-amino-1-(3-hydroxy-2,6-dimethylphenyl)-11-methyl-3-oxo-1,3,4,5-tetrahydro-1,4,10,12-tetraazabenzo[4,5]cyclooctatetraeno[1,2,3-cd]indene-6-carbonitrile]	0.131
Cc1nc2c3c(c(N)n(-c4c(C)ccc(O)c4C)c3n1)C(=O)NCc1nc(C3CC3)ccc1-2 [Compound 28, 2-amino-7-cyclopropyl-1-(3-hydroxy-2,6-dimethylphenyl)-11-methyl-4,5-dihydro-1,4,6,10,12-pentaazabenzo[4,5]cyclooctatetraeno[1,2,3-cd]inden-3(1H)-one]	0.07
COc1c(F)ccc2c1CNC(=O)c1c(N)n(-c3c(C)ccc(O)c3C)c3nc(C)nc-2c13 [Compound 30, 2-amino-7-fluoro-1-(3-hydroxy-2,6-dimethylphenyl)-6-methoxy-11-methyl-4,5-dihydro-1,4,10,12-tetraazabenzo[4,5]cyclooctatetraeno[1,2,3-cd]inden-3(1H)-one]	0.308
Cc1nc2c3c(c(N)n(-c4c(C)ccc(O)c4C)c3n1)C(=O)NCc1nc(OC3CC3)ccc1-2 [Compound 31, 2-amino-7-cyclopropoxy-1-(3-hydroxy-2,6-dimethylphenyl)-11-methyl-4,5-dihydro-1,4,6,10,12-pentaazabenzo[4,5]cyclooctatetraeno[1,2,3-cd]inden-3(1H)-one]	0.297
Cc1nc2c3c(c(N)n(-c4c(C)ccc(O)c4C)c3n1)C(=O)NCc1nc(CO)ccc1-2 [Compound 32, 2-amino-1-(3-hydroxy-2,6-dimethylphenyl)-7-(hydroxymethyl)-11-methyl-4,5-dihydro-1,4,6,10,12-pentaazabenzo[4,5]cyclooctatetraeno[1,2,3-cd]inden-3(1H)-one]	0.798
Cc1nc2c3c(c(N)n(-c4c(C)ccc(O)c4C)c3n1)C(=O)NCc1c-2ccnc1C [Compound 36, 2-amino-1-(3-hydroxy-2,6-dimethylphenyl)-6,11-dimethyl-4,5-dihydro-1,4,7,10,12-pentaazabenzo[4,5]cyclooctatetraeno[1,2,3-cd]inden-3(1H)-one]	0.0638

The remaining lines, values ahead:

IC50 [µM]	Compound
0.768	Cc1nc2c3c(c(N)n(-c4c(C)ccc(O)c4C)c3n1)C(=O)NCc1nn(C)cc1-2 [Compound 8, 2-amino-1-(3-hydroxy-2,6-dimethylphenyl)-7,10-dimethyl-1,4,5,7-tetrahydro-3H-1,4,6,7,9,11-hexaazacyclopenta[4,5]cyclooctatetraeno[1,2,3-cd]inden-3-one]
0.0092	Cc1nc2c3c(c(N)n(-c4c(C)ccc(O)c4C)c3n1)C(=O)Nc1c-2cnn1C [Compound 12, 5-amino-4-(3-hydroxy-2,6-dimethylphenyl)-2,8-dimethyl-7,8-dihydro-1,3,4,7,8,9-hexaazabenzo[cd]cyclopenta[f]azulen-6(4H)-one]
0.0273	Cc1nc2c3c(c(N)n(-c4c(C)ccc(O)c4C)c3n1)C(=O)Nc1nn(C)cc1-2 [Compound 13, 2-amino-1-(3-hydroxy-2,6-dimethylphenyl)-6,9-dimethyl-4,6-dihydro-1,4,5,6,8,10-hexaazabenzo[cd]cyclopenta[f]azulen-3(1H)-one]
0.254	Cc1nc2c3c(c(N)n(-c4c(C)ccc(O)c4C)c3n1)C(=O)Nc1nn(CC(F)(F)F)cc1-2 [Compound 14, 2-amino-1-(3-hydroxy-2,6-dimethylphenyl)-9-methyl-6-(2,2,2-trifluoroethyl)-4,6-dihydro-1,4,5,6,8,10-hexaazabenzo[cd]cyclopenta[f]azulen-3(1H)-one]
0.264	Cc1nc2c3c(c(N)n(-c4c(C)ccc(O)c4C)c3n1)C(=O)Nc1c(F)cncc1-2 [Compound 16, 5-amino-8-fluoro-4-(3-hydroxy-2,6-dimethylphenyl)-2-methyl-4,7-dihydro-6H-1,3,4,7,10-pentaazadibenzo[cd,f]azulen-6-one]
0.0246	Cc1nc2c3c(c(N)n(-c4c(C)ccc(O)c4C)c3n1)C(=O)Nc1ncccc1-2 [Compound 17, 5-amino-4-(3-hydroxy-2,6-dimethylphenyl)-2-methyl-4,7-dihydro-6H-1,3,4,7,8-pentaazadibenzo[cd,f]azulen-6-one]
0.011	Cc1nc2c3c(c(N)n(-c4c(C)ccc(O)c4C)c3n1)C(=O)Nc1cnccc1-2 [Compound 18, 5-amino-4-(3-hydroxy-2,6-dimethylphenyl)-2-methyl-4,7-dihydro-6H-1,3,4,7,9-pentaazadibenzo[cd,f]azulen-6-one]
0.05	Cc1nc2c3c(c(N)n(-c4c(C)ccc(O)c4C)c3n1)C(=O)Nc1ccncc1-2 [Compound 19, 5-amino-4-(3-hydroxy-2,6-dimethylphenyl)-2-methyl-4,7-dihydro-6H-1,3,4,7,10-pentaazadibenzo[cd,f]azulen-6-one]
0.0255	Cc1nc2c3c(c(N)n(-c4c(C)ccc(O)c4C)c3n1)C(=O)Nc1cccnc1-2 [Compound 20, 5-amino-4-(3-hydroxy-2,6-dimethylphenyl)-2-methyl-4,7-dihydro-6H-1,3,4,7,11-pentaazadibenzo[cd,f]azulen-6-one]
0.562	Cc1nc2c3c(c(N)n(-c4c(C)ccc(O)c4C)c3n1)C(=O)NCc1nc(C(F)(F)F)ccc1-2 [Compound 29, 2-amino-1-(3-hydroxy-2,6-dimethylphenyl)-11-methyl-7-(trifluoromethyl)-4,5-dihydro-1,4,6,10,12-pentaazabenzo[4,5]cyclooctatetraeno[1,2,3-cd]inden-3(1H)-one]
0.049	Cc1nc2c3c(c(N)n(-c4c(C)ccc(O)c4C)c3n1)C(=O)Nc1c-2cnn1C1CC1 [Compound 33, 5-amino-8-cyclopropyl-4-(3-hydroxy-2,6-dimethylphenyl)-2-methyl-7,8-dihydro-1,3,4,7,8,9-hexaazabenzo[cd]cyclopenta[f]azulen-6(4H)-one]
0.0091	Cc1nc2c3c(c(N)n(-c4c(C)ccc(O)c4C)c3n1)C(=O)Nc1c-2c(C)nn1C [Compound 34, 2-amino-1-(3-hydroxy-2,6-dimethylphenyl)-5,7,9-trimethyl-4,5-dihydro-1,4,5,6,8,10-hexaazabenzo[cd]cyclopenta[f]azulen-3(1H)-one]
0.0405	CCc1nccc2c1CNC(=O)c1c(N)n(-c3c(C)ccc(O)c3C)c3nc(C)nc-2c13 [Compound 35, 2-amino-6-ethyl-1-(3-hydroxy-2,6-dimethylphenyl)-11-methyl-4,5-dihydro-1,4,7,10,12-pentaazabenzo[4,5]cyclooctatetraeno[1,2,3-cd]inden-3(1H)-one]
0.0338	Cc1nc2c3c(c(N)n(-c4c(C)ccc(O)c4C)c3n1)C(=O)Nc1sncc1-2 [Compound 37, 5-amino-4-(3-hydroxy-2,6-dimethylphenyl)-2-methyl-4,7-dihydro-6H-8-thia-1,3,4,7,9-pentaazabenzo[cd]cyclopenta[f]azulen-6-one]
0.092	Cc1nc2c3c(c(N)n(-c4c(C)ccc(O)c4C)c3n1)C(=O)Nc1scnc1-2 [Compound 38, 5-amino-4-(3-hydroxy-2,6-dimethylphenyl)-2-methyl-4,7-dihydro-6H-8-thia-1,3,4,7,10-pentaazabenzo[cd]cyclopenta[f]azulen-6-one]
